In experiment [1] the target is T1, CDK2 (Homo sapiens, UniProt P24941).
T1 construct: High-Throughput Measurement of Cellular Endogenous CDK2; endogenous in cells; host or cells: OVCAR3
Nature of the experiment: High-throughput HTRF measurement of cellular endogenous CDK2 level (degradation, DC50/Dmax) in OVCAR3 cells, 6 h. Format: cell-based. The conditions noted are these: 6 h compound treatment, HTRF total CDK2, read-out: DC50_OVCAR3_6h. Summed up: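 DC50 and Dmax were derived by four-parameter logistic fit of the […] TR-FRET ratio, scaled between DMSO (0% degradation) and lysis buffer (100%) controls. The ratio came from an HTRF total-CDK2 sandwich immunoassay on lysates of OVCAR3 cells given 0.03–1,000 nM compound for 6 hours.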

The target in experiment [2] is T1, CDK2. Kind of experiment: Inhibition of CDK2: phospho-Rb (S807/811) HTRF measurement in OVCAR3 cells, 24 h. Format: cell-based. The settings on record: 24 h compound treatment, read-out: pRB_OVCAR3_24h. Put shortly:
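IC50 came from a four-parameter fit of DMSO-normalized TR-FRET ratios (665/620 nm) reporting phospho-Rb S807/811. Lysates were taken from OVCAR3 cultures treated 24 h with compound (0.3 to 10,000 nM) and incubated 4 h at room temperature with the antibody pair.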

In the case of `Cn1nc(N2CCC(=S)NC2=O)c2ccc(C3CCN(CC4CCN(c5cccc(S(=O)(=O)N6CCC(Nc7ncc(Cl)cn7)CC6)c5)CC4)CC3)cc21` [Example 239, 1-(6-(1-((1-(3-((4-((5-chloropyrimidin-2-yl)amino)piperidin-1-yl)sulfonyl)phenyl)piperidin-4-yl)methyl)piperidin-4-yl)-1-methyl-1H-indazol-3-yl)-4-thioxotetrahydropyrimidin-2(1H)-one], the DC50 on CDK2 [1] is 10 to 100 nM. Besides, the IC50 at CDK2 [2] is 100 to 500 nM.
Taken in the same sequence, the figures for `Cn1nc(N2CCC(=O)NC2=O)c2ccc(C3CCN(Cc4ccc(S(=O)(=O)N5CCC(Nc6ncc(OC(F)F)cn6)CC5)cc4)CC3)cc21` [Example 241, 1-(6-(1-(4-((4-((5-(difluoromethoxy)pyrimidin-2-yl)amino)piperidin-1-yl)sulfonyl)benzyl)piperidin-4-yl)-1-methyl-1H-indazol-3-yl)dihydropyrimidine-2,4(1H,3H)-dione] were 1 to 10 nM and 1 to 100 nM.
The matching figures for `CC(C)c1cnc(NC2CCN(S(=O)(=O)c3cccc(N4CCC(CN5CCC(c6ccc7c(N8CCC(=O)NC8=O)nn(C)c7c6)CC5)CC4)c3)CC2)nc1` [Example 244, 1-(6-(1-((1-(3-((4-((5-isopropylpyrimidin-2-yl)amino)piperidin-1-yl)sulfonyl)phenyl)piperidin-4-yl)methyl)piperidin-4-yl)-1-methyl-1H-indazol-3-yl)dihydropyrimidine-2,4(1H,3H)-dione]: 1 to 10 nM and 1 to 100 nM.
Regarding `O=C1CCC(N2Cc3cc(N4CCC(CN5CCN(c6cccc(S(=O)(=O)N7CCC(Nc8ncc(Cl)cn8)CC7)c6)CC5)CC4)ccc3C2=O)C(=O)N1` (centres unmarked) [Example 247, 3-(5-(4-((4-(3-((4-((5-chloropyrimidin-2-yl)amino)piperidin-1-yl)sulfonyl)phenyl)piperazin-1-yl)methyl)piperidin-1-yl)-1-oxoisoindolin-2-yl)piperidine-2,6-dione], at CDK2 [1], the DC50 is 10 to 100 nM. Moreover, at CDK2 [2], the IC50 was 1 to 100 nM.
Turning to `O=C1CCC(N2Cc3cc(N4CCC(CN5CCN(c6cccc(S(=O)(=O)N7CCC(Nc8ncc(C(F)(F)F)cn8)CC7)c6)CC5)CC4)ccc3C2=O)C(=O)N1` (centres unmarked) [Example 248, 3-(1-oxo-5-(4-((4-(3-((4-((5-(trifluoromethyl)pyrimidin-2-yl)amino)piperidin-1-yl)sulfonyl)phenyl)piperazin-1-yl)methyl)piperidin-1-yl)isoindolin-2-yl)piperidine-2,6-dione], on CDK2 [1], the DC50 was 1000 to 5000 nM. Further, on CDK2 [2], the IC50 was 1 to 100 nM.
As to `O=C1CCC(c2csc3cc(C4CCN(CC5CCN(c6cccc(S(=O)(=O)N7CCC(Nc8ncc(C(F)(F)F)cn8)CC7)c6)CC5)CC4)ccc23)C(=O)N1` (centres unmarked) [Example 250, 3-(6-(1-((1-(3-((4-((5-(trifluoromethyl)pyrimidin-2-yl)amino)piperidin-1-yl)sulfonyl)phenyl)piperidin-4-yl)methyl)piperidin-4-yl)benzo[b]thiophen-3-yl)piperidine-2,6-dione], the DC50 on CDK2 [1] lay within 10 to 100 nM. On CDK2 [2], the IC50 was in the range of 1 to 100 nM.
Taken in the same sequence, the figures for `Cn1cc(C2CCC(=O)NC2=O)c2ccc(C3CCN(CC4CCN(c5cccc(S(=O)(=O)N6CCC(Nc7ncc(C(F)(F)F)cn7)CC6)c5)CC4)CC3)cc21` (centres unmarked) [Example 251, 3-(1-methyl-6-(1-((1-(3-((4-((5-(trifluoromethyl)pyrimidin-2-yl)amino)piperidin-1-yl)sulfonyl)phenyl)piperidin-4-yl)methyl)piperidin-4-yl)-1H-indol-3-yl)piperidine-2,6-dione] were 10 to 100 nM and 1 to 100 nM.

For the origin of these results see patent publication US20260167623A1 (NIKANG THERAPEUTICS, INC., priority 2022, published 2026).
